What was measured:
[1] = tested on: H1975 (non-small-cell lung cancer cells. EGFR L858K/T790M); assay: Tumor cell proliferation and growth inhibition analysis (Cell Titer-Glo, 72 h), H1975; type: cell-based; conditions: Homo sapiens, NCI-H1975; H1975 cells, 72 h exposure, Cell Titer-Glo; read-out: H1975 GI50
Text: (§1) […] cell proliferation assay is described as follows.
(§2) Tumor cell proliferation and growth inhibition analysis: H1975 (non-small-cell lung cancer cells. EGFR L858K/T790M) and A431 (human epidermal cancer cells, EGFR wild type) cells were commercially available from the ATCC cell bank. […] The growth medium for A431 cells was DMEM (GIBCO, 11995-065), 10% fetal bovine serum. The influence exerted by the compounds on the proliferation activity of tumor cells was detected by Cell Titer-Glo assay. Tumor cells were exposed to the treatment conditions for 72 h, and the cell density used in each experiment for each cell line was adjusted according to the 72 h cell growth curve. 10 concentration gradients and three-fold dilutions (0.5 nM-10 μM) were set for compounds to be tested, and 3 parallel controls were used for each concentration value.
(§3) Trypsin was used for digesting cells in the logrithmic growth phase to prepare cell suspension, which was counted by a Roche counter and appropriately diluted with complete medium to a final cell concentration of 1˜2×10^3 cell/mL. 384-well plates were seeded with cells, and 22.6 μL were seeded for each well. 3 parallels were set. The plates were incubated in an incubator with 5% CO2 at 37° C. overnight. The compounds were dissolved in DMSO to prepare […] mother liquor. […] 2 μL of compound solution was added into 18 μL of culture medium, and fully mixed. Then 2 μL of mixed solution of compound and culture medium was added into 18 μL of culture medium, and fully mixed. 2.4 μL of mixtures were added into a 384-well plates. […] After cultivation for 72 h, 24 μL of Cell Titer-Glo reagent was added. The contents were mixed on an orbital shaker for 2 min to induce cell lysis. The 384-well plates were incubated at room temperature for 10 min to stabilize the […] signal value. Data was read by Infinite® M1000 PRO (TECAN), and calculated with GraphPad Prism version 5.0. GI50 value was obtained by adjustment using a non-linear regression model of dose response curves.

[2] = tested on: A431 (human epidermal cancer cells, EGFR wild type); assay: Tumor cell proliferation and growth inhibition analysis (Cell Titer-Glo, 72 h), A431; type: cell-based; conditions: A-431, 72 h exposure
Text: as §1, §2, §3

Row | SMILES | GI50 [1] [nM] | GI50 [2] [nM]
1 | C=CC(=O)Nc1cc(Nc2ncnc(-c3cccc4cc[nH]c34)n2)c(OC(F)F)cc1N(C)CCN(C)C [Example 33, N-(5-((4-(1H-indol-7-yl)-1,3,5-triazin-2-yl)amino)-4-(difluoromethoxy)-2-((2-(dimethylamino)ethyl)(methyl)amino)phenyl)acrylamide] | 9.8 | 100
2 | C=CC(=O)Nc1cc(Nc2nccc(-c3cn(C)c4cc(C)sc34)n2)c(OC)cc1N(C)CCN(C)C [Example 30] | 21.5 | 943
3 | C=CC(=O)Nc1cc(Nc2nccc(-c3c(C)n(C)c4sc(C)cc34)n2)c(OC)cc1N(C)CCN(C)C [Example 31, N-(2-((2-(dimethylamino)ethyl)(methyl)amino)-4-methoxy-5-((4-(2,5,6-trimethyl-thieno[2,3-b]pyrrol-4-yl)pyrimidin-2-yl)amino)phenyl)acrylamide] | 33.5 | 625
4 | C=CC(=O)Nc1cc(Nc2nccc(-c3cn(C)c4cccnc34)n2)c(OC)cc1N(C)CCN(C)C [Example 12, N-(2-((2-(dimethylamino)ethyl)(methyl)amino)-4-methoxy-5-((4-(1-methyl-1H-pyrrolo[3,2-b]pyridin-3-yl)pyrimidin-2-yl)amino)phenyl)acrylamide] | 6.8 | 10200
5 | C=CC(=O)Nc1cc(Nc2nccc(-c3cn(C)c4cccnc34)n2)c(OC(F)F)cc1N(C)CCN(C)C [Example 18] | 6.7 | 296
6 | C=CC(=O)Nc1cc(Nc2nccc(-c3cn(C)c4cccnc34)n2)c(OC)cc1N1CCC(N(C)C)CC1 [Example 15, N-(2-(4-(dimethylamino)piperidin-1-yl)-4-methoxy-5-((4-(1-methyl-1H-pyrrolo[3,2-b]pyridin-3-yl)pyrimidin-2-yl)amino)phenyl)acrylamide] | 77.5 | 5370
7 | C=CC(=O)Nc1cc(Nc2cc(-c3nn(C)c4ccsc34)ccn2)c(OC)cc1N(C)CCN(C)C [Example 41, N-(2-((2-(dimethylamino)ethylmethyl)amino)-4-methoxy-5-((4-(1-methyl-1H-thieno[3,2-c]pyrazol-3-yl)pyridin-2-yl)amino)phenyl)acrylamide] | ~36.5 | ~800
8 | C=CC(=O)Nc1cc(Nc2cc(-c3cnn4cccnc34)ccn2)c(OC)cc1N(C)CCN(C)C [Example 43, N-(2-((2-(dimethylamino)ethyl)(methyl)amino)-4-methoxy-5-((4-(pyrazolo[1,5-a]pyrimidin-3-yl)pyridin-2-yl)amino)phenyl)acrylamide] | 19.1 | 267
9 | C=CC(=O)Nc1cc(Nc2ncnc(-c3cn(C)c4ncccc34)n2)c(OC(F)F)cc1N(C)CCN(C)C [Example 38, N-(4-(difluoromethoxy)-2-((2-(dimethylamino)ethyl)(methyl)amino)-5-((4-(1-methyl-1H-pyrrolo[2,3-b]pyridin-3-yl)-1,3,5-triazin-2-yl)amino)phenyl)acrylamide] | 8.3 | 144
10 | C=CC(=O)Nc1cc(Nc2cc(-c3nn(C)c4cccnc34)ccn2)c(OC)cc1N(C)CCN(C)C [Example 42, N-(2-((2-(dimethylamino)ethyl)(methyl)amino)-4-methoxy-5-((4-(1-methyl-1H-pyrazolo[4,3-b]pyridin-3-yl)pyridin-2-yl)amino)phenyl)acrylamide] | 16.3 | 264
11 | C=CC(=O)Nc1cc(Nc2nccc(-c3cn(C)c4cccnc34)n2)c(OC)cc1N1CCN(C)CC1 [Example 13, N-(4-methoxy-5-((4-(1-methyl-H-pyrrolo[3,2-b]pyridin-3-yl)pyrimidin-2-yl)amino)-2-(4-methylpiperazin-1-yl)phenyl)acrylamide] | 175 | 1560
12 | C=CC(=O)Nc1cc(Nc2cc(-c3cnc4ccccn34)ccn2)c(OC)cc1N(C)CCN(C)C [Example 44, N-(2-((2-(dimethylamino)ethyl)(methyl)amino)-5-((4-(imidazo[1,2-a]pyridin-3-yl)pyridin-2-yl)amino)-4-methoxyphenyl)acrylamide] | 104 | 638
13 | C=CC(=O)Nc1cc(Nc2cc(-n3nc(C)c4ccccc43)ccn2)c(OC)cc1N(C)CCN(C)C [Example 45, N-(2-((2-(dimethylamino)ethyl)(methyl)amino)-4-methoxy-5-((4-(3-methyl-1H-indazol-1-yl)pyridin-2-yl)amino)phenyl)acrylamide] | 7.6 | 798
14 | C=CC(=O)Nc1cc(Nc2ncnc(-c3cccc4ccn(C)c34)n2)c(OC)cc1N(C)CCN(C)C [Example 37, N-(2-((2-(dimethylamino)ethyl)(methyl)amino)-4-methoxy-5-((4-(1-methyl-1H-indol-7-yl)-1,3,5-triazin-2-yl)amino)phenyl)acrylamide] | 441 | 1320

Next, values leading:

Row | GI50 [1] [nM] | GI50 [2] [nM] | SMILES
15 | 2880 | 2100 | C=CC(=O)Nc1cc(Nc2nccc(-c3cn(C)c4cccnc34)n2)c(OC)cc1N1CCC[C@H]1CN(C)C [Example 16]
16 | 168 | 728 | C=CC(=O)Nc1cc(Nc2nccc(-c3noc4ccccc34)n2)c(OC)cc1N1CCN(C)CC1 [Example 2, N-(5-((4-(benzo[d]isoxazol-3-yl)pyrimidin-2-yl)amino)-4-methoxy-2-(4-methylpiperazin-1-yl)phenyl)acrylamide]
17 | 261 | 5300 | C=CC(=O)Nc1cc(Nc2nccc(-c3nn(C)c4ccsc34)n2)c(OC(F)F)cc1N1CCC(N(C)C)CC1 [Example 28]
18 | 35.9 | 319 | C=CC(=O)Nc1cc(Nc2nccc(-c3cn(C)c4cccnc34)n2)c(OC(F)F)cc1N1CCC(N(C)C)CC1 [Example 21, N-(4-(difluoromethoxy)-2-(4-(dimethylamino)piperidin-1-yl)-5-((4-(1-methyl-1H-pyrrolo[3,2-b]pyridin-3-yl)pyrimidin-2-yl)amino)phenyl)acrylamide]
19 | 60.3 | > 1000 | C=CC(=O)Nc1cc(Nc2nccc(-c3nn(C)c4ccsc34)n2)c(OC(F)F)cc1N1CC2(CCCN2C)C1 [Example 29, N-(4-(difluoromethoxy)-5-((4-(1-methyl-1H-thieno[3,2-c]pyrazol-3-yl)pyrimidin-2-yl)amino)-2-(5-methyl-2,5-diazaspiro[3.4]oct-2-yl)phenyl)acrylamide]
20 | 296 | 1130 | C=CC(=O)Nc1cc(Nc2nccc(-c3nn(C)c4ccsc34)n2)c(OC(F)F)cc1N1CCN(C)CC1 [Example 26, N-(4-(difluoromethoxy)-5-((4-(1-methyl-1H-thieno[3,2-c]pyrazol-3-yl)pyrimidin-2-yl)amino)-2-(4-methylpiperazin-1-yl)phenyl)acrylamide]
21 | 36 | 690 | C=CC(=O)Nc1cc(Nc2nccc(-c3noc4ccccc34)n2)c(OC(F)F)cc1N1CC2(CCCN2C)C1 [Example 11, N-(5-((4-(benzo[d]isoxazol-3-yl)pyrimidin-2-yl)amino)-4-(difluoromethoxy)-2-(5-methyl-2,5-diazaspiro[3.4]oct-2-yl)phenyl)acrylamide]
22 | 285 | > 1000 | C=CC(=O)Nc1cc(Nc2nccc(-c3noc4ccccc34)n2)c(OC(F)F)cc1N1CCC[C@H]1CN(C)C [Example 10]
23 | 26.1 | 299 | C=CC(=O)Nc1cc(Nc2nccc(-c3noc4ccccc34)n2)c(OC(F)F)cc1N1CC(N(C)C)C1 [Example 8, N-(5-((4-(benzo[d]isoxazol-3-yl)pyrimidin-2-yl)amino)-4-(difluoromethoxy)-2-(3-(dimethylamino)azetidin-1-yl)phenyl)acylamide]
24 | 24.2 | > 1000 | C=CC(=O)Nc1cc(Nc2nccc(-c3noc4ccccc34)n2)c(OC(F)F)cc1N1CCC(N(C)C)CC1 [Example 9, N-(5-((4-(benzo[d]isoxazol-3-yl)pyrimidin-2-yl)amino)-4-(difluoromethoxy)-2-(4-(dimethylamino)piperidin-1-yl)phenyl)acrylamide]
25 | 6.5 | 85.8 | C=CC(=O)Nc1cc(Nc2nccc(-c3nn(C)c4ccsc34)n2)c(OC(F)F)cc1N(C)CCN(C)C [Example 25]
26 | 844 | ~63400 | C=CC(=O)Nc1cc(Nc2nccc(-c3noc4ccccc34)n2)c(OC)cc1N1CCC[C@H]1CN(C)C [Example 4, (S)—N-(5-((4-(benzo[d]isoxazol-3-yl)pyrimidin-2-yl)amino)-2-(2-((dimethno)methyl)pyrrolidin-1-yl)-4-methoxyphenyl)acrylamide]
27 | 31.2 | 1220 | C=CC(=O)Nc1cc(Nc2nccc(-c3noc4ccccc34)n2)c(OC)cc1N1CC2(CCCN2C)C1 [Example 5, N-(5-((4-(benzo[d]isoxazol-3-yl)pyrimidin-2-yl)amino)-4-methoxy-2-(5-methyl-2,5-diazaspiro[3.4]oct-2-yl)phenyl)acrylamide]

Reference: US10377747B2, “2-arylamino pyridine, pyrimidine or triazine derivatives, preparation method and use thereof” (Wuxi Shuangliang Biotechnology Co., Ltd., priority 2015, dated 2019)
